# According to patent publication US20220110902A1, “Methods of treating amyloid-beta peptide diseases” (Ecole Polytechnique Federale de Lausanne, priority 2016, published 2022):
# Tests used:
# [1] = test system: CL2122 worms; assay: Transcript analysis of the MSR in CL2122 control worms; assay type: in vivo, C. elegans; conditions: CL2122, day 1 of adulthood; dox 15 μg/mL, NR 1 mM, AZD 0.3 μM
# Description: C. elegans: A total of ˜3000 worms per condition, divided in 3 biological replicates, was recovered in M9 buffer from NGM plates and lysed in the TriPure RNA reagent. Each experiment was repeated twice. Total RNA was transcribed to cDNA using QuantiTect Reverse Transcription Kit (Qiagen). Expression of selected genes was analyzed using the LightCycler480 system (Roche) and LightCycler® 480 SYBR Green I Master reagent (Roche). For C. elegans, 2 housekeeping genes were used to normalize the expression data, namely actin (act-1) and peroxisomal membrane protein 3 (pmp-3).
# atfs-1p::atfs-1 expression vector was created by amplifying 1488 bp sequence upstream from the transcription start site of atfs-1 coding region by using worm genomic DNA for the promoter region. […] The correctness of the atfs-1p::atfs-1 construct was assessed by sequencing with the indicated pPD30.38 and atfs-1 seq. primers. Two independent GMC101 lines (AUW9 and AUW10), and one CL2122 strain (AUW11) carrying atfs-1p::atfs-1 transgene as extrachromosomal array were analyzed in the study. […] The deriving F1 worms were shifted from 20° C. to 25° C. at the L4 stage to induce amyloid accumulation and paralysis, and phenotypes assessed over time as indicated. […]
# [2] = test system: SH-SY5Y(APPSwe) cells; assay: Western-blot and transcript analysis in SH-SY5Y(APPSwe) cells; assay type: cell-based, human; conditions: NR 1 mM
# Description: Human: Total RNA was extracted using guanidine-isothiocyanate lysis (PureLink, Ambion, Waltham, Mass.) from cortex samples, and RNA integrity and concentration was verified using Bioanalysis (Agilent, Santa Clara, Calif.). Samples were randomized based on diagnostic group and assayed in triplicate on a real-time PCR cycler (ABI 7500, Applied Biosystems, Foster City) in 96-well optical plates. qPCR was performed using Taqman hydrolysis probe primer sets (Applied Biosystems) specific for the following human transcripts: HSPA9, HSPD1, YMEIL1, DNM1L, BECN1, SQSTM1, PARK2, COX5A, CYC1. A primer set specific for human GAPDH was used as a control housekeeping transcript. For the APPSwe-expressing SH-SY5Y cell line, total RNA was extracted […] using TriPure RNA isolation reagent, and expression of selected transcripts was analyzed using the LightCycler480 system (Roche) and LightCycler® 480 SYBR Green I Master reagent (Roche). The GAPDH gene was used as housekeeping reference. The ddCT method was employed to determine relative levels of each amplicon. […] The SH-SY5Y neuroblastoma cell line expressing the APP Swedish K670N/M671L double mutation (APPSwe) was a kind gift of Prof. Cedazo-Minguez (Karolinska Institute, Sweden). Cells were grown in DMEM/F-12, supplemented with 10% fetal bovine serum (FBS, Gibco), GlutaMAX (100×, Gibco) and penicillin/streptomycin (1×, Gibco). Cells were selected in 4 μg/mL Geneticin® Selective Antibiotic (G418 Sulfate, Sigma) and grown for three generations before experiments with cells plated and passaged at 4×10^3 cells/ml and 60% confluence, respectively. Cells were cultured at 37° C. under a 5% CO2 atmosphere and tested for mycoplasma using Mycoprobe (#CUL001B, R&D systems) following the manufacturer's instructions. Cells were treated with 10 μg/mL dox, NR 1 or 3 mM, ISRIB 0.5 μM (Sigma), as indicated for 24 hours before cell harvesting or fixation. For the immunostaining, cells were fixed with 1× Formal-Fixx (Thermo Scientific) for 15 min. […]
Compound,MSR transcripts in control strain [1],"MSR transcript levels ([2]; 24 h, dox 10 μg/mL)",oxidative phosphorylation (OXPHOS) protein levels ([2]; Western-blot)
"O=C(c1cc(Cc2n[nH]c(=O)c3ccccc23)ccc1F)N1CCN(C(=O)C2CC2)CC1 [AZD, Olaparib, reference compound]",induction of the MSR was also consistently observed,–,–
"NC(=O)c1ccc[n+]([C@@H]2O[C@H](CO)[C@@H](O)[C@H]2O)c1 [NR, Nicotinamide Riboside triflate]",induction of the MSR was also consistently observed,increased,increases
